Values quoted from earlier work as cited in patent US20210195917A1, “COMPOSITIONS AND RELATED METHODS FOR AGRICULTURE” (priority 2017, published 2021).

Key:
target bacterial strains = settings: against its target bacterial strains
bees = settings: in vivo
[1] = test system: gram-negative and gram-positive bacteria as well as fungi

Molecule: botrycidin AJ1316
- antifungal activities (fungi): antifungal activities

Molecule: nisin
- concentration showing antimicrobial activity (target bacterial strains): single-digit nanomolar

Molecule: COP(=S)(OC)Oc1ccc([N+](=O)[O-])c(C)c1 [fenitrothion]
- toxicity to bees (bees): toxic to bees

B1: NCR335: cationic NCR peptide of Medicago truncatula, SEQ ID NO: 65 (peptide, listed as Medicago truncatula)
chain: MQIGKNMVETPKLDYVIIFFFLYFFFRQMIILRLNTTFRPLNFKMLRFWGQNRNIMKHRGQKVHFSLILSDCKTNKDCPKLRRANVRCRKSYCVPI
- antimicrobial activities [1]: effective
